Assay results as given in patent publication US20060216295A1, “Methods of identifying therapeutic targets for the treatment of vulvovaginal atrophy” (Wyeth, priority 2005, published 2006).
Where two headings read alike, the source gives them in different places.

Assays:
[1] = test system: vaginal epithelium; assay type: in vivo, rat
Procedure: FIG. 4 represents H&E stained cross-sections of rat vagina after 5 days of intravaginal treatment with 100 nM betacellulin in 2% carbomer vehicle.
These histologic changes are the hallmark of a vaginal estrogenic response. Tables 2 and 3 detail the studies performed with mersalyl and betacellulin. The body of the table indicates the number of positive histological changes over the number of samples evaluated.
Table 4 includes the studies performed with the PHD/FIH non-specific inhibitor DMOG, whereas Table 5 is the studies performed with 2,4-DPD.
Table 6 includes the studies performed with the FIH specific inhibitor 3,4-dihydroxybenzoate (3,4-DHB), whereas Table 7 outlines the studies performed with N-oxalyl-D-alanine (NODA).

[2] = test system: vaginal epithelium; assay type: in vivo, rat; details: intravaginal; 50 nM 17β-estradiol, 10 nM recombinant mouse betacellulin, 1 μM Mersalyl; 2% carbomer vehicle
[3] = test system: HIF1α transcription; details: cited from earlier work

## COC(CNC(=O)c1ccccc1OCC(=O)O)[CH2][Hg][OH] (centres unmarked) [Mersalyl, mersalyl]
[1]; Mersalyl dose 0.1 μM intravaginal, Study 2
  number of positive histological changes over the number of samples evaluated: 2/4
[1]; Mersalyl dose 0.1 μM intravaginal, Study 3
  number of positive histological changes over the number of samples evaluated: 4/4
[1]; Mersalyl dose 0.1 μM intravaginal, Study 4
  number of positive histological changes over the number of samples evaluated: 4/4
[1]; Mersalyl dose 1 μM intravaginal, Study 1
  number of positive histological changes over the number of samples evaluated: 3/3
[1]; Mersalyl dose 1 μM intravaginal, Study 2
  number of positive histological changes over the number of samples evaluated: 4/4/
[1]; Mersalyl dose 1 μM intravaginal, Study 3
  number of positive histological changes over the number of samples evaluated: 2/3
[1]; Mersalyl dose 1 μM intravaginal, Study 4
  number of positive histological changes over the number of samples evaluated: 4/4/
[1]; Mersalyl dose 10 μM intravaginal, Study 1
  number of positive histological changes over the number of samples evaluated: 0/3
[1]; Mersalyl dose 10 μM intravaginal, Study 2
  number of positive histological changes over the number of samples evaluated: 0/4
[1]; Mersalyl dose 100 μM intravaginal, Study 1
  number of positive histological changes over the number of samples evaluated: 0/3
[1]; ovariectomized rats
  effect on the rat vaginal epithelium, in words: expansion of the vaginal epithelium in a manner similar to treatment with 17β-estradiol
[1]; rats, intravaginal dosing, Example 2
  histological change of the vaginal epithelial layer compared to vehicle: clear thickening and differentiation of the vaginal epithelial layer
[2]
  histology of rat vagina (H&E stained cross-sections) compared to vehicle, FIG. 1: positive effect
[3]
  upregulation of HIF1α transcription: upregulate HIF1α transcription
